What all share (assay): AK assay 384-well format, Prestwick library screening
The subject of one experiment is K. pneumoniae. Format: cell-based, Klebsiella pneumoniae. To be noted: 50 μM final drug concentration; for fold induction at 50 µM: Klebsiella pneumoniae, 3 h.
In a further experiment the test system is E. faecium. Format: cell-based, Enterococcus faecium. To be noted: 50 μM final drug concentration; for fold induction at 50 µM: Enterococcus faecium, 3 h.
The subject of a further experiment is E. coli. Format: cell-based, Escherichia coli. The following applies: 50 μM final drug concentration; for fold induction at 50 µM: Escherichia coli, 3 h.
In experiment [1] the test system is A. baumannii strain 98-37-09. Format: cell-based, Acinetobacter baumannii. The following applies: 50 μM final drug concentration; for fold induction at 50 µM: Acinetobacter baumannii, 983709, 3 h.
Experiment [2] has as its system S. aureus strain USA300-0114. Format: cell-based, Staphylococcus aureus. The following applies: 50 μM final drug concentration; for fold induction at 50 µM: Staphylococcus aureus, USA300, 3 h.
The next experiment concerns E. cloacae. Format: cell-based, Enterobacter cloacae. To be noted: 50 μM final drug concentration; for fold induction at 50 µM: Enterobacter cloacae, 3 h.
Another experiment deals with P. aeruginosa. Format: cell-based, Pseudomonas aeruginosa. The following applies: 50 μM final drug concentration; for fold induction at 50 µM: Pseudomonas aeruginosa, 3 h.
Where [3] appears, read: planktonic K. pneumoniae, 384-well, cutoff for positive-scoring molecules 3-fold increase, read-out: AK-based Prestwick Library Screening Results: K. pneumoniae (increase in extracellular AK activity).
Where [4] appears, read: planktonic E. faecium, 384-well, cutoff for positive-scoring molecules 3-fold increase, read-out: AK-based Prestwick Library Screening Results: E. faecium (increase in extracellular AK activity).
Setting [5] is: planktonic E. coli, 384-well, cutoff for positive-scoring molecules 3-fold increase, read-out: AK-based Prestwick Library Screening Results: E. coli (increase in extracellular AK activity).
[6] abbreviates: planktonic A. baumannii, 384-well, cutoff for positive-scoring molecules 3-fold increase, read-out: AK-based Prestwick Library Screening Results: A. baumannii (increase in extracellular AK activity).
[7] abbreviates: planktonic S. aureus, 384-well, cutoff for positive-scoring molecules 3-fold increase, read-out: AK-based Prestwick Library Screening Results: S. aureus (increase in extracellular AK activity).
The mark [8] stands for this setting: planktonic E. cloacae, 384-well, cutoff for positive-scoring molecules 3-fold increase, read-out: AK-based Prestwick Library Screening Results: E. cloacae (increase in extracellular AK activity).
Setting [9] is: planktonic P. aeruginosa, 384-well, cutoff for positive-scoring molecules 3-fold increase, read-out: AK-based Prestwick Library Screening Results: P. aeruginosa (increase in extracellular AK activity).

Counter-ions that a name gives are not always drawn. Like-named read-outs stand apart in the source and are kept apart here.

Regarding `CN(C)[C@@H]1C(O)=C(C(N)=O)C(=O)[C@@]2(O)C(O)=C3C(=O)c4c(O)ccc(Cl)c4[C@@](C)(O)[C@H]3C[C@@H]12` [Chlortetracycline hydrochloride], the fold induction at 50 µM in the experiment with K. pneumoniae (setting [3]) amounted to 0.2; with E. faecium (setting [4]), 0.9; in the experiment with E. coli (setting [5]) it was 0.8; in experiment [1] (setting [6]) it was 3.9; in experiment [2] (setting [7]), 6.8; in the experiment with E. cloacae (setting [8]), 1. In addition, in the experiment with P. aeruginosa (setting [9]), the fold induction at 50 µM is 0.7.

As to `COc1ccc2cc(CCC(C)=O)ccc2c1` [Nabumetone], the fold induction at 50 µM in the experiment on K. pneumoniae (planktonic, cutoff for positive-scoring molecules 3-fold increase, read-out: AK-based Prestwick Library Screening Results, K. pneumoniae (fold increase in extracellular AK activity)) is 0.5; in the experiment on E. faecium (planktonic, cutoff for positive-scoring molecules 3-fold increase, read-out: AK-based Prestwick Library Screening Results, E. faecium (fold increase in extracellular AK activity)), 0.4; in the experiment on E. coli (planktonic, cutoff for positive-scoring molecules 3-fold increase, read-out: AK-based Prestwick Library Screening Results, E. coli (fold increase in extracellular AK activity)) it was 0.5; in experiment [1] (planktonic, cutoff for positive-scoring molecules 3-fold increase, read-out: AK-based Prestwick Library Screening Results, A. baumannii (fold increase in extracellular AK activity)), 0.4; in experiment [2] (planktonic, cutoff for positive-scoring molecules 3-fold increase, read-out: AK-based Prestwick Library Screening Results, S. aureus (fold increase in extracellular AK activity)), 0.4; in the experiment with E. cloacae (planktonic, cutoff for positive-scoring molecules 3-fold increase, read-out: AK-based Prestwick Library Screening Results, E. cloacae (fold increase in extracellular AK activity)) it was 1. In addition, in the experiment with P. aeruginosa (planktonic, cutoff for positive-scoring molecules 3-fold increase, read-out: AK-based Prestwick Library Screening Results, P. aeruginosa (fold increase in extracellular AK activity)), the fold induction at 50 µM was 0.6.

As for `CC(=O)O[C@H]1CC[C@@]2(C)C(=CC[C@@H]3[C@@H]2CC[C@]2(C)C(=O)CC[C@@H]32)C1` [Dehydroisoandosterone 3-acetate], in the experiment with K. pneumoniae ([…]), the “AK-based Prestwick Library Screening Results, K. pneumoniae (fold increase in extracellular AK activity)” value is on record as 0.9. In addition, the “AK-based Prestwick Library Screening Results, E. faecium (fold increase in extracellular AK activity)” value in the experiment on E. faecium ([…]) is 1.1. The “AK-based Prestwick Library Screening Results, E. coli (fold increase in extracellular AK activity)” value in the experiment on E. coli ([…]) came to 1.0. Further, the “AK-based Prestwick Library Screening Results, A. baumannii (fold increase in extracellular AK activity)” value in experiment [1] ([…]) was 1.1. In addition, the “AK-based Prestwick Library Screening Results, S. aureus (fold increase in extracellular AK activity)” value in experiment [2] ([…]) is reported as 0.8. For the same molecule, the “AK-based Prestwick Library Screening Results, E. cloacae (fold increase in extracellular AK activity)” value with E. cloacae ([…]) is 1.7. The “AK-based Prestwick Library Screening Results, P. aeruginosa (fold increase in extracellular AK activity)” value in the experiment with P. aeruginosa ([…]) is recorded as 1.1.

On to `CCN1C[C@]2(C)CC[C@H](OC)[C@@]34C1[C@]1(OCO[C@@]15C[C@H](OC)[C@H]1C[C@]3(O)[C@@H]5[C@H]1OC)[C@@H](OC(C)=O)[C@H]24` [Deltaline], for which the fold induction at 50 µM with K. pneumoniae (planktonic, […], read-out: AK-based Prestwick Library Screening Results, K. pneumoniae (fold increase in extracellular AK activity)) is 0.7; in the experiment on E. faecium (planktonic, […], read-out: AK-based Prestwick Library Screening Results, E. faecium (fold increase in extracellular AK activity)), 0.9; with E. coli (planktonic, […], read-out: AK-based Prestwick Library Screening Results, E. coli (fold increase in extracellular AK activity)), 0.9; in experiment [1] (planktonic, […], read-out: AK-based Prestwick Library Screening Results, A. baumannii (fold increase in extracellular AK activity)), 0.8; in experiment [2] (planktonic, […], read-out: AK-based Prestwick Library Screening Results, S. aureus (fold increase in extracellular AK activity)), 0.8; in the experiment on E. cloacae (planktonic, […], read-out: AK-based Prestwick Library Screening Results, E. cloacae (fold increase in extracellular AK activity)), 1.1. Besides, the fold induction at 50 µM in the experiment with P. aeruginosa (planktonic, […], read-out: AK-based Prestwick Library Screening Results, P. aeruginosa (fold increase in extracellular AK activity)) was 0.8.

On to `CNCCC=C1c2ccccc2CCc2ccccc21` [Nortriptyline hydrochloride], for which the fold induction at 50 µM with K. pneumoniae (384-well format, cutoff for positive-scoring molecules 3-fold increase, read-out: AK-based Prestwick Library Screening Results, K. pneumoniae (increase in extracellular AK activity)) turned out to be 0.7; with E. faecium (384-well format, cutoff for positive-scoring molecules 3-fold increase, read-out: AK-based Prestwick Library Screening Results, E. faecium (increase in extracellular AK activity)), 0.9; in the experiment on E. coli (384-well format, cutoff for positive-scoring molecules 3-fold increase, read-out: AK-based Prestwick Library Screening Results, E. coli (increase in extracellular AK activity)), 0.9; in experiment [1] (384-well format, cutoff for positive-scoring molecules 3-fold increase, read-out: AK-based Prestwick Library Screening Results, A. baumannii (increase in extracellular AK activity)) it was 0.9; in experiment [2] (384-well format, cutoff for positive-scoring molecules 3-fold increase, read-out: AK-based Prestwick Library Screening Results, S. aureus (increase in extracellular AK activity)), 1; with E. cloacae (384-well format, cutoff for positive-scoring molecules 3-fold increase, read-out: AK-based Prestwick Library Screening Results, E. cloacae (increase in extracellular AK activity)), 0.9. In addition, in the experiment on P. aeruginosa (384-well format, cutoff for positive-scoring molecules 3-fold increase, read-out: AK-based Prestwick Library Screening Results, P. aeruginosa (increase in extracellular AK activity)), the fold induction at 50 µM amounted to 0.8.

Take `NS(=O)(=O)c1cc(C2(O)NC(=O)c3ccccc32)ccc1Cl` (centres unmarked) [Chlorthalidone]: the fold induction at 50 µM with K. pneumoniae (planktonic K. pneumoniae, cutoff for positive-scoring molecules 3-fold increase, read-out: AK-based Prestwick Library Screening Results, K. pneumoniae (increase in extracellular AK activity)) amounted to 0.6; in the experiment on E. faecium (planktonic E. faecium, cutoff for positive-scoring molecules 3-fold increase, read-out: AK-based Prestwick Library Screening Results, E. faecium (increase in extracellular AK activity)), 0.9; with E. coli (planktonic E. coli, cutoff for positive-scoring molecules 3-fold increase, read-out: AK-based Prestwick Library Screening Results, E. coli (increase in extracellular AK activity)), 0.9; in experiment [1] (planktonic A. baumannii, cutoff for positive-scoring molecules 3-fold increase, read-out: AK-based Prestwick Library Screening Results, A. baumannii (increase in extracellular AK activity)), 0.8; in experiment [2] (planktonic S. aureus, cutoff for positive-scoring molecules 3-fold increase, read-out: AK-based Prestwick Library Screening Results, S. aureus (increase in extracellular AK activity)) it was 0.7; in the experiment with E. cloacae (planktonic E. cloacae, cutoff for positive-scoring molecules 3-fold increase, read-out: AK-based Prestwick Library Screening Results, E. cloacae (increase in extracellular AK activity)) it was 1. Moreover, the fold induction at 50 µM with P. aeruginosa (planktonic P. aeruginosa, cutoff for positive-scoring molecules 3-fold increase, read-out: AK-based Prestwick Library Screening Results, P. aeruginosa (increase in extracellular AK activity)) turned out to be 0.8.

In the case of `CCCC1C(=O)N2C(N(C)C)=Nc3ccc(C)cc3N2C1=O` (centres unmarked) [Azapropazone], the fold induction at 50 µM stood at 0.9 in the experiment with K. pneumoniae (planktonic K. pneumoniae, positive cutoff 3-fold increase, read-out: AK-based Prestwick library screening result, K. pneumoniae (fold increase in extracellular AK activity)); 1 in the experiment with E. faecium (planktonic E. faecium, positive cutoff 3-fold increase, read-out: AK-based Prestwick library screening result, E. faecium (fold increase in extracellular AK activity)); 1.1 in the experiment on E. coli (planktonic E. coli, positive cutoff 3-fold increase, read-out: AK-based Prestwick library screening result, E. coli (fold increase in extracellular AK activity)); 0.9 in experiment [1] (planktonic A. baumannii, positive cutoff 3-fold increase, read-out: AK-based Prestwick library screening result, A. baumannii (fold increase in extracellular AK activity)); 0.8 in experiment [2] (planktonic S. aureus, positive cutoff 3-fold increase, read-out: AK-based Prestwick library screening result, S. aureus (fold increase in extracellular AK activity)); 1.5 in the experiment on E. cloacae (planktonic E. cloacae, positive cutoff 3-fold increase, read-out: AK-based Prestwick library screening result, E. cloacae (fold increase in extracellular AK activity)). Also, the fold induction at 50 µM in the experiment with P. aeruginosa (planktonic P. aeruginosa, positive cutoff 3-fold increase, read-out: AK-based Prestwick library screening result, P. aeruginosa (fold increase in extracellular AK activity)) stood at 1.

Regarding `CC(=O)OCC(=O)[C@@]1(O)[C@H](C)C[C@H]2[C@@H]3CCC4=CC(=O)C=C[C@]4(C)[C@@]3(F)[C@@H](O)C[C@@]21C` [Dexamethasone acetate], the fold induction at 50 µM in the experiment on K. pneumoniae (setting [3]) was found to be 1.1; in the experiment on E. faecium (setting [4]), 1.2; in the experiment with E. coli (setting [5]), 1.4; in experiment [1] (setting [6]) it was 1.1; in experiment [2] (setting [7]) it was 1.2; in the experiment on E. cloacae (setting [8]), 1.2. Also, the fold induction at 50 µM with P. aeruginosa (setting [9]) worked out at 1.

The values are drawn from US10004701B2, “Methods and compositions for treating infection” (UNIVERSITY OF ROCHESTER, priority 2012, dated 2018).
